In article PMC7897990, “TriTOX: A novel Trichomonas vaginalis assay platform for high-throughput screening of compound libraries” (International Journal for Parasitology: Drugs and Drug …, 2021):

Legend:
[1] = test system: T. foetus; assay: Pre-optimisation Mtz drug-sensitivity testing, 96-well, T. foetus; format: cell-based; settings: Tritrichomonas foetus
Procedure: (§1) For microtiter plate assays, trichomonads were grown in anaerobic conditions within GasPak EZ anaerobe pouches with fresh anaerobic sachets. Working reagent of the chromogen was phenol red (Sigma) in a 1% w/v working solution in phosphate buffered saline (PBS), which was filter sterilised. Chromogen absorbance was monitored at 570 nm on an absorbance microplate reader after plates were allowed to equilibrate in atmospheric conditions at room temperature for at least 5 min.
(§2) After absorbances were measured, data were processed as followed unless indicated otherwise in the text. […] Prism 8 (GraphPad) was used to plot dose-response curves and calculate IC50 values, using a least squares regression, log[inhibitor] vs normalised response (variable slope, four parameters) model. Where replicate plates were used, data for dose-response curves were plotted as the mean±SD of these replicates.
(§3) Trichomonad growth assays were assessed via Mtz drug-sensitivity testing in a medium throughput format (96-wells). Mtz was screened as two-fold, 10-point dilutions between 100 and 0.2 μM. For both T. foetus and T. vaginalis conditions were 5% (v/v) chromogen, well volumes of 100 μL and 200 μL and seeds of 10,000 and 20,000 cells/mL, and absorbance measured at 40 and 65 h. Mtz dose-response curves were plotted and Mtz IC50 calculated for both species, as well as the Z′ for each combination of conditions (volume, seed, timepoint) based on 4 technical replicates as described in Section 2.3.

[2] = test system: T. vaginalis; assay: Miniaturised Mtz drug-sensitivity assay, 96-well plates; format: cell-based; settings: Trichomonas vaginalis
Procedure: as §1, §2
(§4) Miniaturised assay formats were assessed via Mtz drug-sensitivity for T. vaginalis in 96-well and 384-well plate formats using 5% (v/v) chromogen. For medium-throughput formats, seeds of 15,000 and 50,000 cells/mL were used in well volumes of 50 μL and 100 μL. For high-throughput formats, 25 μL well volumes were evaluated using seeds of 10,000, 20,000 and 40,000 cells/mL, while 50 μL well volumes used seeds of 5000, 10,000 and 20,000 cells/mL.

[3] = test system: T. vaginalis; assay: Pre-optimisation Mtz drug-sensitivity testing, 96-well, T. vaginalis; format: cell-based; settings: Trichomonas vaginalis
Procedure: as §1, §2, §3

[4] = test system: T. vaginalis; assay: Medium-throughput (MTS) confirmatory dose-response growth assay, T. vaginalis; format: cell-based, Trichomonas vaginalis; settings: Trichomonas vaginalis; 96-well, 10,000 cells/mL in 50 μL, 48 h, mean ± SEM; >10 = no appreciable activity at highest dose
How it was run: (§5)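 Both trichomonad species seeded at 10,000 cells/mL, grown anaerobically with a 10-point serial dilution for 48 h. Growth read by phenol red absorbance at 570 nm. IC50 from a four-parameter variable-slope fit, with 3 technical and at least 2 biological replicates.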

[5] = test system: T. vaginalis; assay: Miniaturised Mtz drug-sensitivity assay, 384-well plates; format: cell-based; settings: Trichomonas vaginalis
Procedure: as §1, §2, §4

[6] = test system: T. foetus; assay: Medium-throughput (MTS) confirmatory dose-response growth assay, T. foetus; format: cell-based, Tritrichomonas foetus; settings: Tritrichomonas foetus; 96-well, 10,000 cells/mL in 50 μL, 48 h, mean ± SEM; >10 = no appreciable activity at highest dose
How it was run: as §5

Cc1ncc([N+](=O)[O-])n1CCO [Metronidazole]
IC50 ([1]; 40 h, Cα: 10 cells/µL, 100 µL, 40 h, read-out: Mtz IC50 T. foetus): 1.17 µM
IC50 ([1]; 40 h, Cβ: 20 cells/µL, 100 µL, 40 h, read-out: Mtz IC50 T. foetus): 1.31 µM
IC50 ([1]; 40 h, Cγ: 10 cells/µL, 200 µL, 40 h, read-out: Mtz IC50 T. foetus): 1.19 µM
IC50 ([1]; 40 h, Cδ: 20 cells/µL, 200 µL, 40 h, read-out: Mtz IC50 T. foetus): 1.23 µM
IC50 ([1]; 40 h, pre-optimisation, 40 h, read-out: Mtz IC50 T. foetus, across conditions): 1.2 µM
IC50 ([1]; 65 h, Cα: 10 cells/µL, 100 µL, 65 h, read-out: Mtz IC50 T. foetus): 2.17 µM
IC50 ([1]; 65 h, Cβ: 20 cells/µL, 100 µL, 65 h, read-out: Mtz IC50 T. foetus): 2.7 µM
IC50 ([1]; 65 h, Cγ: 10 cells/µL, 200 µL, 65 h, read-out: Mtz IC50 T. foetus): 2.07 µM
IC50 ([1]; 65 h, Cδ: 20 cells/µL, 200 µL, 65 h, read-out: Mtz IC50 T. foetus): 2.38 µM
IC50 ([1]; 65 h, pre-optimisation, 65 h, read-out: Mtz IC50 T. foetus, across conditions): 2.3 ± 0.1 µM
IC50 ([2]; 24 h, C2: 96-well, 50 cells/µL, 50 µL, 24 h): 2.18 µM
IC50 ([2]; 24 h, C3: 96-well, 15 cells/µL, 100 µL, 24 h): 2.91 µM
IC50 ([2]; 24 h, C4: 96-well, 50 cells/µL, 100 µL, 24 h): 2.23 µM
IC50 ([2]; 36 h, C1: 96-well, 15 cells/µL, 50 µL, 36 h): 1.16 µM
IC50 ([2]; 36 h, C2: 96-well, 50 cells/µL, 50 µL, 36 h): 3.74 µM
IC50 ([2]; 36 h, C3: 96-well, 15 cells/µL, 100 µL, 36 h): 1.34 µM
IC50 ([2]; 36 h, C4: 96-well, 50 cells/µL, 100 µL, 36 h): 3.45 µM
IC50 ([2]; 48 h, C1: 96-well, 15 cells/µL, 50 µL, 48 h): 1.58 µM
IC50 ([2]; 48 h, C2: 96-well, 50 cells/µL, 50 µL, 48 h): 3.49 µM
IC50 ([2]; 48 h, C3: 96-well, 15 cells/µL, 100 µL, 48 h): 1.96 µM
IC50 ([2]; 48 h, C4: 96-well, 50 cells/µL, 100 µL, 48 h): 5.01 µM
IC50 ([3]; 40 h, Cα: 10 cells/µL, 100 µL, 40 h, read-out: Mtz IC50 T. vaginalis): 1.63 µM
IC50 ([3]; 40 h, Cβ: 20 cells/µL, 100 µL, 40 h, read-out: Mtz IC50 T. vaginalis): 2.64 µM
IC50 ([3]; 40 h, Cγ: 10 cells/µL, 200 µL, 40 h, read-out: Mtz IC50 T. vaginalis): 1.63 µM
IC50 ([3]; 40 h, Cδ: 20 cells/µL, 200 µL, 40 h, read-out: Mtz IC50 T. vaginalis): 2.16 µM
IC50 ([3]; 40 h, pre-optimisation, 40 h, read-out: Mtz IC50 T. vaginalis, across conditions): 2 ± 0.2 µM
IC50 ([3]; 65 h, Cα: 10 cells/µL, 100 µL, 65 h, read-out: Mtz IC50 T. vaginalis): 3.09 µM
IC50 ([3]; 65 h, Cβ: 20 cells/µL, 100 µL, 65 h, read-out: Mtz IC50 T. vaginalis): 3.21 µM
IC50 ([3]; 65 h, Cγ: 10 cells/µL, 200 µL, 65 h, read-out: Mtz IC50 T. vaginalis): 2.67 µM
IC50 ([3]; 65 h, Cδ: 20 cells/µL, 200 µL, 65 h, read-out: Mtz IC50 T. vaginalis): 3.19 µM
IC50 ([3]; 65 h, pre-optimisation, 65 h, read-out: Mtz IC50 T. vaginalis, across conditions): 3 ± 0.1 µM
IC50 [4]: 1.4 ± 0.2 µM
IC50 ([5]; 24 h, C5: 384-well, 250 cells/well, 25 µL, 24 h): 1.22 µM
IC50 ([5]; 24 h, C6: 384-well, 500 cells/well, 25 µL, 24 h): 2.02 µM
IC50 ([5]; 24 h, C7: 384-well, 1000 cells/well, 25 µL, 24 h): 3.21 µM
IC50 ([5]; 24 h, C8: 384-well, 250 cells/well, 50 µL, 24 h): 0.759 µM
IC50 ([5]; 24 h, C9: 384-well, 500 cells/well, 50 µL, 24 h): 1.36 µM
IC50 ([5]; 24 h, C10: 384-well, 1000 cells/well, 50 µL, 24 h): 2.33 µM
IC50 ([5]; 36 h, C5: 384-well, 250 cells/well, 25 µL, 36 h): 0.623 µM
IC50 ([5]; 36 h, C6: 384-well, 500 cells/well, 25 µL, 36 h): 0.888 µM
IC50 ([5]; 36 h, C7: 384-well, 1000 cells/well, 25 µL, 36 h): 1.89 µM
IC50 ([5]; 36 h, C8: 384-well, 250 cells/well, 50 µL, 36 h): 0.672 µM
IC50 ([5]; 36 h, C9: 384-well, 500 cells/well, 50 µL, 36 h): 0.703 µM
IC50 ([5]; 36 h, C10: 384-well, 1000 cells/well, 50 µL, 36 h): 0.893 µM
IC50 ([5]; 48 h, C5: 384-well, 250 cells/well, 25 µL, 48 h): 1.55 µM
IC50 ([5]; 48 h, C6: 384-well, 500 cells/well, 25 µL, 48 h): 2.9 µM
IC50 ([5]; 48 h, C7: 384-well, 1000 cells/well, 25 µL, 48 h): 4.31 µM
IC50 ([5]; 48 h, C8: 384-well, 250 cells/well, 50 µL, 48 h): 1.34 µM
IC50 ([5]; 48 h, C9: 384-well, 500 cells/well, 50 µL, 48 h): 1.5 µM
IC50 ([5]; 48 h, C10: 384-well, 1000 cells/well, 50 µL, 48 h): 3.03 µM
IC50 [6]: 1.2 ± 0.1 µM
